Source: publication PMC6213900, “Design, Synthesis, and Cytotoxic Analysis of Novel Hederagenin–Pyrazine Derivatives Based on Partial Least Squares Discriminant Analysis” (International Journal of Molecular Sciences, 2018)

Legend:
[1] = tested on: A549 (human non-small-cell lung cancer); assay: MTT cytotoxicity assay, A549; assay type: cell-based; settings: Homo sapiens, A549, 72 h treatment, read-out: Half Maximal Inhibitory Concentration (IC50) A549
In short: (§1)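 Cells seeded at 3 × 10^3/well in DMEM/10% FBS, then treated 72 h with 3.125–50 μM compound in DMSO. MTT (5 mg/mL) added for 4 h, formazan dissolved in DMSO, absorbance read at 490 nm; inhibition relative to untreated control, IC50 as 50% growth inhibition, triplicate runs.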

[2] = tested on: MCF-7 (human mammary cancer); assay: MTT cytotoxicity assay, MCF-7; assay type: cell-based; settings: Homo sapiens, MCF7, 72 h treatment, read-out: Half Maximal Inhibitory Concentration (IC50) MCF-7
In short: as §1

[3] = tested on: HepG2 (human hepatocellular carcinoma); assay: MTT cytotoxicity assay, HepG2; assay type: cell-based; settings: Homo sapiens, HepG2; MTT, 72 h treatment; read-out: Half Maximal Inhibitory Concentration (IC50) HepG2
In short: as §1

[4] = tested on: MDCK (Madin–Darby canine kidney) cells; assay: MTT toxicity evaluation, MDCK; assay type: cell-based; settings: Canis lupus familiaris, MDCK, 72 h treatment, non-tumor cells, read-out: Half Maximal Inhibitory Concentration (IC50) MDCK
In short: as §1

A549 cells [5] = assay: Annexin V-FITC/PI staining, flow cytometry; assay type: cell-based, human; settings: 72 h
Description: To further depict the apoptosis induced by compound 9, apoptotic rates were analyzed by flow cytometry using Annexin V-FITC/PI staining.
According to instructions, A549 cells were stained with an annexin-V FITC apoptosis detection kit (Beijing BioDee Biotech. Co., Ltd., Beijing, China). A549 cells in the logarithmic growth phase were seeded in six-well plates (4.8 × 10^4 cells/well). After incubation for 24 h at 37 °C with 5% CO2, various concentrations (0, 2, 5, or 10 μM) of compound 9 were added to the cultures, and the plate was incubated for a further 72 h. A549 cells were collected, washed twice with cold PBS, and centrifuged at 2400 rpm for 10 min. The resulting pellet was mixed with 200 μL of binding buffer of the Annexin V-FITC kit; then, 5 μL of FITC-labeled annexin V was added and mixed gently. After incubation at 4 °C for 10 min in the dark, 5 μL of PI was added. Then, the cells were immediately analyzed with a flow cytometer at 488 nm.

A549 cells [6] = assay: Cell-cycle analysis by PI staining, flow cytometry; assay type: cell-based, human; settings: 72 h
Description: The remarkable activity of compound 9 against the A549 cell line prompted us to investigate its effect on the cell cycle of A549 by flow cytometry.
According to instructions, A549 cells were stained with the Cell Cycle and Apoptosis Analysis Kit (Beyotime Biotechnology, Shanghai, China). A549 cells in the logarithmic growth phase were seeded in six-well plates (4.8 × 10^4 cells/well). After incubation for 24 h at 37 °C with 5% CO2, various concentrations (0, 2, 5, or 10 μM) of compound 9 were added to the cultures, and the plate was incubated for a further 72 h. A549 cells were collected, washed twice with cold PBS, and centrifuged at 2400 rpm for 10 min. The resulting pellet was mixed with 1 mL of 70% ethanol, and retained for 12 h at 4 °C, before being centrifuged at 2400 rpm for 10 min. The supernatant was discarded, and the resulting pellet was mixed with 1mL of cold PBS and centrifuged at 2400 rpm for 10 min. Then, 0.5 mL of PI staining solution was added and mixed gently. After incubation at 37 °C for 30 min, the cells were immediately analyzed with a flow cytometer at 488 nm.

A549 cells [7] = assay: DAPI staining, nuclear morphology; assay type: cell-based, human; settings: 6 μM, 72 h
Description: As pictured in Figure 6, in the control group, the nucleus was intact and evenly colored. […] When the concentration of the drug increased, nuclear condensation, nuclear fragmentation, and the formation of apoptotic bodies appeared.
A549 cells in the logarithmic growth phase were seeded in 12-well plates (1.2 × 10^4 cells/well). After incubation for 24 h at 37 °C with 5% CO2, various concentrations (0, 2, 4, or 6 μM) of compound 9 were added to the cultures, and the plate was incubated for further 72 h. Then, we discarded the cell culture fluid, washed twice with PBS, and fixed the cells with 4% paraformaldehyde for 10 min. After that, we added the appropriate amount of DAPI (1 mg/mL; Molecular Probes/Invitrogen Life Technologies, Carlsbad, CA, USA) to cover the bottom of the board, after staining for 5 min in the dark.

## Cc1cncc(C(=O)OCCOC(=O)[C@]23CCC(C)(C)CC2C2=CCC4[C@@]5(C)CC[C@H](O)[C@@](C)(CO)C5CC[C@@]4(C)[C@]2(C)CC3)n1 (stereo partly drawn) [Compound 9, 2-(((4aS,6aS,6bR,9R,10S,12aR)-10-Hydroxy-9-(hydroxymethyl)-2,2,6a,6b,9,12a-hexamethyl-1,2,3,4,4a,5,6,6a,6b,7,8,8a,9,10,11,12,12a,12b,13,14b-icosahydropicene-4a-carbonyl)oxy)ethyl-6-methylpyrazine-2-carboxylate]
[1]
  IC50: 3.45 ± 0.59 µM
[2]
  IC50: 8.73 ± 1.49 µM
[3]
  IC50: 8.71 ± 0.38 µM
[4]
  IC50: 14.11 ± 0.04 µM
A549 cells [5]; 2 μM
  percentage of apoptotic cells (early and late apoptosis): 17.4%
A549 cells [5]; 5 μM
  percentage of apoptotic cells (early and late apoptosis): 72.0%
A549 cells [5]; 10 μM
  percentage of apoptotic cells (early and late apoptosis): 91.5%
A549 cells [6]; 2 μM
  cells in G1 phase: 57.46%
  cells in G2 phase: 8.37%
  cells in S phase: 34.17%
A549 cells [6]; 5 μM
  cells in G1 phase: 53.44%
  cells in G2 phase: 0.00%
  cells in S phase: 46.56%
A549 cells [6]; 10 μM
  cells in G1 phase: 39.54%
  cells in G2 phase: 0.00%
  cells in S phase: 60.46%
A549 cells [7]
  nuclear morphology, DAPI staining: the number of cells decreased drastically, the shape of the cells became irregular, and nuclear fragmentation occurred
